The text below walks through data of ChEMBL document CHEMBL4418269, “Novel Quinoline-Hepcidine Antagonists” (2012).

Usually inhibition stands for the share of the control response that was lost under treatment.

In this test the target is T1, Hepcidin (Homo sapiens) (UniProt P81172).
T1 sequence (whole entry): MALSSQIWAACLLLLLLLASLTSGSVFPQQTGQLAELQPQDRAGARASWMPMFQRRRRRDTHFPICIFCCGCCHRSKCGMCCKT
Put plainly: Inhibition of human hepcidin-stimulated recombinant C-terminal Halo-tagged human FPN internalization in MDCK cells at 10 uM incubated for 15 to 20 mins by Halo-tagged TMR based fluorescence assay relative to control. The class given is cell-based.

For `COc1cc(C(=O)Oc2c(CN3CCOCC3)cc(Cl)c3cccnc23)cc(OC)c1OC`, the inhibition is < 50%. The result for `Oc1c(C(Nc2ccccn2)c2cccnc2)cc(Cl)c2cccnc12` (stereo unspecified) reads < 50%. The result for `Oc1c(C(c2ccc(Cl)cc2)N2CCOCC2)cc(Cl)c2cccnc12` (stereo unspecified) reads < 50%. `O=C(Oc1c(CN2CCOCC2)cc(Cl)c2cccnc12)c1ccccc1`: the inhibition is < 50%.

As to `Oc1c(C(c2ccccn2)N2CCOCC2)ccc2cccnc12` (stereo unspecified), the inhibition was > 50%.

For `O=C(Oc1c(CN2CCOCC2)cc(Cl)c2cccnc12)c1ccco1`, the inhibition was < 50%.
